A word on the IC50: it is the concentration that inhibits the measured activity by half.

Where only a bound is given, the exact number is not on record here.

45 molecules from patent US20260167656A1, “PHOSPHORAMIDATE COMPOUNDS AND USES THEREOF” (ALLORION THERAPEUTICS INC, priority 2022, published 2026) can be followed below.

The subject of assay [1] is non-small cell lung cancer cell line H460. Put plainly: In vitro human cancer cell line cytotoxicity (proliferation) assay in H460, CellTiter-Glo, 72 hours. The following applies: H460 cells, DMSO condition (no AKR1C3 inhibitor), read-out: CTG H460: Avg IC50 (nM) [Assay Condition: DMSO]. Type of assay: cell-based. Put shortly:
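IC50s in nM come from CellTiter-Glo viability read after 72 h of compound exposure. Compounds went in from 10 mM DMSO stocks onto H460 cells, which had been plated at 3×10^3 per well and grown 24 h beforehand at 37 °C, 5% CO2.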

Assay [2] shares this test system. Description: H460 proliferation assay in the presence of 3 uM ASP9521 (AKR1C3 specific inhibitor). Type of assay: cell-based, human. The following applies: H460 cells, CellTiter-Glo, 72 hours, in the presence of 3 uM ASP9521 added 4 hours prior to compounds; read-out: CTG H460: Avg IC50 (nM) [Assay Condition: ASP9521]. Put shortly: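 AKR1C3 blocked with 3 uM ASP9521 given 4 h ahead of test compounds. H460 cells, plated 24 h earlier, were then treated for 72 h at 37 °C in 5% CO2. CellTiter-Glo luminescence gave viability.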
Background: Cellular ATP, detected with luciferase, serves as a proxy for viable cell number.

For `O=[N+]([O-])c1ccc2c(c1Oc1cccc(OC(F)F)c1)CC[C@@H]2OP(=O)(N1CC1)N1CC1` [Example 457], the half-inhibitory concentration (IC50) in assay [1] was less than 10 nM; in assay [2] it was 768 nM.
Turning to `O=[N+]([O-])c1cc2c(cc1Oc1ccc(-c3ccccc3)nc1)C(OP(=O)(N1CC1)N1CC1)CC2` (stereo not drawn) [Example 192], the IC50 was less than 10 nM in assay [1] (Homo sapiens, NCI-H460, 72 h) and 1090 nM in assay [2].
`O=[N+]([O-])c1ccc2c(c1Oc1cccc(OC(F)F)c1)CCC2OP(=O)(N1CC1)N1CC1` (racemic) [Example 454]: the IC50 in assay [1] is less than 10 nM; in assay [2], 559 nM.
With `CC(OP(=O)(N1CC1)N1CC1)c1cc2cc(Oc3cccc(C(=O)N(C)C)c3)c([N+](=O)[O-])cc2o1` (single isomer, unassigned) [Example 232], the half-inhibitory concentration (IC50) in assay [1] (Homo sapiens, NCI-H460, 72 h) was 10 to 50 nM; in assay [2], 4110 nM.
With `Cc1csc(-c2cc(Oc3c([N+](=O)[O-])ccc4c3CCC4OP(=O)(N3CC3)N3CC3)ccc2F)n1` (stereo not drawn) [Example 340], the half-maximal inhibitory concentration (IC50) in assay [1] is 10 to 50 nM; in assay [2] it was 4390 nM.
For the molecule `C[C@@H](OP(=O)(N1CC1)N1CC1)c1cc2cc(Oc3cccc(OC(F)(F)F)c3)c([N+](=O)[O-])cc2o1` (single isomer, unassigned) [Example 531], the IC50 is less than 10 nM in assay [1] (Homo sapiens, NCI-H460, 72 h) and 1430 nM in assay [2].
As for `O=[N+]([O-])c1ccc2c(c1Oc1cccc(-c3ccc(F)cn3)c1)CCC2OP(=O)(N1CC1)N1CC1` (stereo not drawn) [Example 323], the half-maximal inhibitory concentration (IC50) was less than 10 nM in assay [1] and 2690 nM in assay [2].
Consider `O=[N+]([O-])c1ccc2c(c1Oc1cc(F)cc(-c3ncc(F)cn3)c1)CC[C@@H]2OP(=O)(N1CC1)N1CC1` [Example 364], for which the concentration for half-maximal inhibition (IC50) in assay [1] (Homo sapiens, NCI-H460, 72 h) is 10 to 50 nM; in assay [2], 4030 nM.
Turning to `O=[N+]([O-])c1ccc2c(c1Oc1ccc(-c3ccccc3)cc1)CCC2OP(=O)(N1CC1)N1CC1` (single isomer, unassigned) [Example 20], the half-inhibitory concentration (IC50) in assay [1] was less than 10 nM; in assay [2], 1190 nM.
Regarding `CN1CC(=O)N(c2cccc(Oc3c([N+](=O)[O-])ccc4c3CCC4OP(=O)(N3CC3)N3CC3)c2)CC1=O` (stereo not drawn) [Example 122], the IC50 in assay [1] (Homo sapiens, NCI-H460, 72 h) was 10 to 50 nM; in assay [2] it was 3090 nM.
`Cn1c(=O)oc2ccc(Oc3c([N+](=O)[O-])ccc4c3CC[C@@H]4OP(=O)(N3CC3)N3CC3)cc21` [Example 380]: the IC50 in assay [1] (Homo sapiens, NCI-H460, 72 h) was less than 10 nM; in assay [2], 722 nM.
The like results for `Cc1noc(-c2cccc(Oc3c([N+](=O)[O-])ccc4c3CCC4OP(=O)(N3CC3)N3CC3)c2)n1` (stereo not drawn) [Example 119] were, in that order, less than 10 nM and 644 nM.
On to `C[C@@H](OP(=O)(N1CC1)N1CC1)c1cc2cc(Oc3cccc(-c4ccccn4)c3)c([N+](=O)[O-])cc2o1` [Example 553], for which the IC50 was 10 to 50 nM in assay [1] and 2950 nM in assay [2].
For `O=[N+]([O-])c1ccc2c(c1Oc1ccc3ncccc3c1)CC[C@@H]2OP(=O)(N1CC1)N1CC1` [Example 400], the half-inhibitory concentration (IC50) is less than 10 nM in assay [1] (Homo sapiens, NCI-H460, 72 h) and 452 nM in assay [2].
The like results for `C[C@@H]1CN1P(=O)(OCc1ccc([N+](=O)[O-])c(Oc2cccc(C(=O)N(C)C)c2)c1)N1C[C@H]1C` (stereo partly drawn) [Example 208] were, in that order, less than 10 nM and 184 nM.
As for `Cn1cc(-c2ccc(Oc3cc4c(cc3[N+](=O)[O-])CCC4OP(=O)(N3CC3)N3CC3)cc2)cn1` (stereo not drawn) [Example 181], the 50% inhibitory concentration (IC50) in assay [1] was less than 10 nM; in assay [2] it was 942 nM.
In the same order, the values of `Cn1cnc2ccc(Oc3cc4c(cc3[N+](=O)[O-])CCC4OP(=O)(N3CC3)N3CC3)cc2c1=O` (stereo not drawn) [Example 195] are 10 to 50 nM and 4980 nM.
Take `O=C(c1cccc(Oc2c([N+](=O)[O-])ccc3c2CCC3OP(=O)(N2CC2)N2CC2)c1)N1CCCC1` (stereo not drawn) [Example 99]: the IC50 in assay [1] (Homo sapiens, NCI-H460, 72 h) was less than 10 nM; in assay [2] it was 1010 nM.
In the case of `Cn1c(=O)n(C)c2cc(Oc3c([N+](=O)[O-])ccc4c3CCC4OP(=O)(N3CC3)N3CC3)ccc21` (stereo not drawn) [Example 94], the IC50 is 10 to 50 nM in assay [1] and 1450 nM in assay [2].
Turning to `CN(C)C(=O)c1ccc(Oc2c([N+](=O)[O-])ccc3c2OCCC3OP(=O)(N2CC2)N2CC2)cc1` (single isomer, unassigned) [Example 130], the IC50 is 10 to 50 nM in assay [1] (Homo sapiens, NCI-H460, 72 h) and 389 nM in assay [2].
Take `O=[N+]([O-])c1ccc2c(c1Oc1cccc(-c3c(F)cnn3CCO)c1)CC[C@@H]2OP(=O)(N1CC1)N1CC1` [Example 371]: the IC50 was less than 10 nM in assay [1] (Homo sapiens, NCI-H460, 72 h) and 591 nM in assay [2].
As to `O=[N+]([O-])c1ccc2c(c1Oc1ccc(-c3ccccn3)cc1)CC[C@H]2OP(=O)(N1CC1)N1CC1` (single isomer, unassigned) [Example 41], the IC50 in assay [1] (Homo sapiens, NCI-H460, 72 h) is less than 10 nM; in assay [2], 1090 nM.
The like results for `O=[N+]([O-])c1ccc2c(c1Oc1ccc(F)c(OC3CCOCC3)c1)CC[C@H]2OP(=O)(N1CC1)N1CC1` [Example 496] were, in that order, less than 10 nM and 783 nM.
With `CN1Cc2cc(Oc3cc4c(cc3[N+](=O)[O-])CCC4OP(=O)(N3CC3)N3CC3)ccc2C1=O` (stereo not drawn) [Example 155], the concentration for half-maximal inhibition (IC50) in assay [1] was less than 10 nM; in assay [2] it was 128 nM.
Consider `Cc1cncc(-c2ccc(Oc3c([N+](=O)[O-])ccc4c3CC[C@H]4OP(=O)(N3CC3)N3CC3)cc2)n1` [Example 285], for which the IC50 in assay [1] is less than 10 nM; in assay [2] it was 754 nM.
With `CNC(=O)c1cccc(Oc2cc3cc(C(C)OP(=O)(N4CC4)N4CC4)oc3cc2[N+](=O)[O-])c1` (stereo not drawn) [Example 539], the IC50 in assay [1] (Homo sapiens, NCI-H460, 72 h) is less than 10 nM; in assay [2], 2730 nM.
Take `Cn1cc(-c2ccc(Oc3c([N+](=O)[O-])ccc4c3CCC4OP(=O)(N3CC3)N3CC3)cc2)cn1` (single isomer, unassigned) [Example 58]: the values for the IC50 in assay [1] and in assay [2] were 50 to 100 nM and 1010 nM, respectively.
Turning to `O=[N+]([O-])c1cc2oc(COP(=O)(N3CC3)N3CC3)cc2cc1Oc1ccnc(-c2ccccc2)c1` [Example 538], the IC50 in assay [1] (Homo sapiens, NCI-H460, 72 h) is less than 10 nM; in assay [2] it was 711 nM.
`CC1(C)CN(c2cccc(Oc3c([N+](=O)[O-])ccc4c3CCC4OP(=O)(N3CC3)N3CC3)c2)C(=O)O1` (stereo not drawn) [Example 417]: the half-inhibitory concentration (IC50) in assay [1] is less than 10 nM; in assay [2], 712 nM.
In the case of `CC(OP(=O)(N1C[C@H]1C)N1C[C@H]1C)c1ccc([N+](=O)[O-])c(Oc2ccc(-c3ccc(F)cn3)c(F)c2)c1` (stereo partly drawn) [Example 222], the half-maximal inhibitory concentration (IC50) is 10 to 50 nM in assay [1] (Homo sapiens, NCI-H460, 72 h) and 3260 nM in assay [2].
Regarding `C[C@H](OP(=O)(N1CC1)N1CC1)c1cc2cc(Oc3ccc4c(c3)CN(C)C4=O)c([N+](=O)[O-])cc2o1` [Example 565], the half-maximal inhibitory concentration (IC50) in assay [1] is 10 to 50 nM; in assay [2], 5930 nM.
`CN(C)C(=O)c1ccc(Oc2c([N+](=O)[O-])ccc3c2OCCC3OP(=O)(N2CC2)N2CC2)cc1` (single isomer, unassigned) [Example 131]: the IC50 in assay [1] was less than 10 nM; in assay [2], 314 nM.
Take `Cn1c(=O)oc2ccc(Oc3c([N+](=O)[O-])ccc4c3CCC4OP(=O)(N3CC3)N3CC3)cc21` (stereo not drawn) [Example 378]: the IC50 in assay [1] (Homo sapiens, NCI-H460, 72 h) is less than 10 nM; in assay [2], 440 nM.
On to `O=C(c1cccc(Oc2c([N+](=O)[O-])ccc3c2CCC3OP(=O)(N2CC2)N2CC2)c1)N1CCOCC1` (single isomer, unassigned) [Example 126], for which the 50% inhibitory concentration (IC50) in assay [1] was less than 10 nM; in assay [2], 159 nM.
For the molecule `O=[N+]([O-])c1ccc2c(c1Oc1ccc(-c3cnn(C4CC4)c3)cc1)CCC2OP(=O)(N1CC1)N1CC1` (stereo not drawn) [Example 78], the half-maximal inhibitory concentration (IC50) in assay [1] was not below 100 nM; in assay [2] it was 1150 nM.
In the same order, the values of `O=C(c1cccc(Oc2c([N+](=O)[O-])ccc3c2CCC3OP(=O)(N2CC2)N2CC2)c1)N1CCCOCC1` (stereo not drawn) [Example 106] are less than 10 nM and 416 nM.
Regarding `O=[N+]([O-])c1ccc2c(c1Oc1cccc(OC3CCC3)c1)CC[C@@H]2OP(=O)(N1CC1)N1CC1` [Example 463], the values for the half-inhibitory concentration (IC50) in assay [1] and in assay [2] were less than 10 nM and 478 nM, respectively.
Consider `O=[N+]([O-])c1ccc2c(c1Oc1cccc(-n3cc(C(F)F)cn3)c1)CC[C@@H]2OP(=O)(N1CC1)N1CC1` [Example 432], for which the concentration for half-maximal inhibition (IC50) in assay [1] (Homo sapiens, NCI-H460, 72 h) was less than 10 nM; in assay [2], 4170 nM.
`O=[N+]([O-])c1ccc2c(c1Oc1cccc(OCC3CC3)c1)CCC2OP(=O)(N1CC1)N1CC1` (stereo not drawn) [Example 480]: the IC50 in assay [1] is less than 10 nM; in assay [2], 1760 nM.
`O=[N+]([O-])c1ccc2c(c1Oc1cccc(-c3cn[nH]c3)c1)CC[C@@H]2OP(=O)(N1CC1)N1CC1` [Example 369]: the IC50 is less than 10 nM in assay [1] (Homo sapiens, NCI-H460, 72 h) and 938 nM in assay [2].
Regarding `O=[N+]([O-])c1ccc2c(c1Oc1ccc(-c3ccc(F)cc3)c(F)c1)CCC2OP(=O)(N1CC1)N1CC1` (single isomer, unassigned) [Example 28], the IC50 in assay [1] is less than 10 nM; in assay [2] it was 870 nM.
Take `O=[N+]([O-])c1ccc2c(c1Oc1cccc(C(F)(F)F)c1)CCC2OP(=O)(N1CC1)N1CC1` (stereo not drawn) [Example 123]: the half-maximal inhibitory concentration (IC50) is less than 10 nM in assay [1] (Homo sapiens, NCI-H460, 72 h) and 572 nM in assay [2].
Turning to `COc1cc(OCC2CC2)cc(Oc2c([N+](=O)[O-])ccc3c2CC[C@@H]3OP(=O)(N2CC2)N2CC2)c1` [Example 501], the IC50 in assay [1] (Homo sapiens, NCI-H460, 72 h) was less than 10 nM; in assay [2] it was 1080 nM.
For `O=[N+]([O-])c1cc2c(cc1Oc1ccc(-c3ccc(F)cc3)c(F)c1)C(OP(=O)(N1CC1)N1CC1)CC2` (stereo not drawn) [Example 514], the results for the IC50 in assay [1] and in assay [2] were less than 10 nM and 993 nM, respectively.
For the molecule `O=C(NC1CCC1)c1ccc(Oc2c([N+](=O)[O-])ccc3c2CCC3OP(=O)(N2CC2)N2CC2)cc1` (stereo not drawn) [Example 53], the IC50 is less than 10 nM in assay [1] and 945 nM in assay [2].
